We go through seven molecules from PubChem BioAssay AID2060343 (Molecular Pharmacology Branch, DTP, NCI, 2025).

Values joined by “and” are separate entries in the source; they are usually repeats but may differ in a detail not shown here. Identical values can stand only once.

What is called viability, T/C is the ratio of treated to control. As usually defined, the IC50 is the point on the concentration scale where inhibition reaches its midpoint.

In the test the test system is 138582-337-R-J1-PDC spheroids with HUVEC/MSC, viability. The test is described as follows: Anticancer human tumor 138582-337-R-J1-PDC patient-derived Merkel cell tumor cell line growth inhibition [IpAb]. As to conditions: for viability, T/C: stronger effect = lower value. The method, boiled down: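 Combinations with ipatasertib or abemaciclib were tested on tumour spheroids holding HUVEC (25%) and MSC (15%) alongside 60% malignant cells. Top concentration was at or near clinical Cmax (10 microM if undefined), descending in half-log steps.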

Where [1] appears, read: curve of first compound, second compound 0.1 µM.
Where [2] appears, read: curve of first compound, second compound 0.316 µM.
Where [3] appears, read: curve of first compound, second compound 1 µM.
The mark [4] stands for this setting: second compound 0.1 µM, first compound 0.0316 µM.
Setting [5] is: second compound 0.1 µM, first compound 0.1 µM.
Where [6] appears, read: second compound 0.1 µM, first compound 0.316 µM.
The mark [7] stands for this setting: second compound 0.1 µM, first compound 1 µM.
[8] abbreviates: second compound 0.1 µM, first compound 3.16 µM.
Where [9] appears, read: second compound 0.1 µM, first compound 10 µM.
[10] abbreviates: second compound 0.316 µM, first compound 0.0316 µM.
The mark [11] stands for this setting: second compound 0.316 µM, first compound 0.1 µM.
Where [12] appears, read: second compound 0.316 µM, first compound 0.316 µM.
Setting [13] is: second compound 0.316 µM, first compound 1 µM.
[14] abbreviates: second compound 0.316 µM, first compound 3.16 µM.
Setting [15] is: second compound 0.316 µM, first compound 10 µM.
Where [16] appears, read: second compound 1 µM, first compound 0.0316 µM.
[17] abbreviates: second compound 1 µM, first compound 0.1 µM.
Setting [18] is: second compound 1 µM, first compound 0.316 µM.
The mark [19] stands for this setting: second compound 1 µM, first compound 1 µM.
Setting [20] is: second compound 1 µM, first compound 3.16 µM.
Where [21] appears, read: second compound 1 µM, first compound 10 µM.
The mark [22] stands for this setting: curve of first compound, second compound 3.16 µM.
[23] abbreviates: curve of first compound, second compound 10 µM.
Where [24] appears, read: second compound 3.16 µM, first compound 0.0316 µM.
The mark [25] stands for this setting: second compound 3.16 µM, first compound 0.1 µM.
Where [26] appears, read: second compound 3.16 µM, first compound 0.316 µM.
[27] abbreviates: second compound 3.16 µM, first compound 1 µM.
Where [28] appears, read: second compound 3.16 µM, first compound 3.16 µM.
[29] abbreviates: second compound 3.16 µM, first compound 10 µM.
Where [30] appears, read: second compound 10 µM, first compound 0.0316 µM.
Setting [31] is: second compound 10 µM, first compound 0.1 µM.
The mark [32] stands for this setting: second compound 10 µM, first compound 0.316 µM.
Where [33] appears, read: second compound 10 µM, first compound 1 µM.
Where [34] appears, read: second compound 10 µM, first compound 3.16 µM.
Where [35] appears, read: second compound 10 µM, first compound 10 µM.
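Note: spheroids exposed to compounds for seven days.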
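Throughout, for viability, T/C: 100% = DMSO vehicle control viability.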

Consider `CC(=O)c1c(C)c2cnc(Nc3ccc(N4CCNCC4)cn3)nc2n(C2CCCC2)c1=O`, for which the viability, T/C (compound 0.000949 µM) is 95.6% and 98.8%; the viability, T/C (compound 0.003 µM) is 104% and 90.5%; the viability, T/C (compound 0.00949 µM) is 102% and 101%; the viability, T/C (compound 0.03 µM) was 93.2% and 87.6%; the viability, T/C (compound 0.0949 µM) was 94.9% and 92%; the viability, T/C (compound 0.3 µM) is 100% and 84.8%. For the same molecule, the IC50 (curve of compound) is more than 300 nM.

Regarding `COc1c(OCCCN2CCOCC2)ccc2c3n(c(=NC(=O)c4cnc(N)nc4)nc12)CCN3`, the viability, T/C by setting is: (compound 0.00316 µM) 94.9% and 84.9%; (compound 0.01 µM) 71.2% and 75.9%; (compound 0.0316 µM) 53.5% and 58.3%; (compound 0.1 µM) 36.1% and 37.8%; (compound 0.316 µM) 17.5% and 18%; (compound 1 µM) 2.36% and 3.37%. Further, the half-maximal inhibitory concentration (IC50) (curve of compound) is 39 nM and 51.2 nM.

`Cn1nccc1Nc1nccc(-c2ccn(C(CO)c3ccc(Cl)c(F)c3)c(=O)c2)n1` (stereo not drawn) + CCN1CCN(Cc2ccc(Nc3ncc(F)c(-c4cc(F)c5nc(C)n(C(C)C)c5c4)n3)nc2)CC1: the IC50 is more than 10000 nM (curve of first compound, second compound 0.01 µM); more than 10000 nM (curve of first compound, second compound 0.0316 µM); more than 10000 nM under setting [1]; more than 10000 nM under setting [2]; more than 10000 nM under setting [3]. In addition, the viability, T/C by setting is: (second compound 0.01 µM, first compound 0.0316 µM) 99.8%; (second compound 0.01 µM, first compound 0.1 µM) 92.3%; (second compound 0.01 µM, first compound 0.316 µM) 90.1%; (second compound 0.01 µM, first compound 1 µM) 94.8%; (second compound 0.01 µM, first compound 3.16 µM) 107%; (second compound 0.01 µM, first compound 10 µM) 154%. Besides, the viability, T/C runs as follows: (second compound 0.0316 µM, first compound 0.0316 µM) 88.3%; (second compound 0.0316 µM, first compound 0.1 µM) 90.5%; (second compound 0.0316 µM, first compound 0.316 µM) 82.7%; (second compound 0.0316 µM, first compound 1 µM) 91.9%; (second compound 0.0316 µM, first compound 3.16 µM) 107%; (second compound 0.0316 µM, first compound 10 µM) 149%. In addition, the viability, T/C was 79.9% under setting [4]; 89.8% under setting [5]; 79.6% under setting [6]; 90.2% under setting [7]; 108% under setting [8]; 134% under setting [9]. Further, the viability, T/C was 89.8% under setting [10]; 82.7% under setting [11]; 88.6% under setting [12]; 96% under setting [13]; 124% under setting [14]; 173% under setting [15]. Besides, the viability, T/C under setting [16] is 106%; the viability, T/C under setting [17] was 96%; the viability, T/C under setting [18] was 83.2%; the viability, T/C under setting [19] was 97.6%; the viability, T/C under setting [20] is 142%; the viability, T/C under setting [21] was 178%.

For `CC1(C)CCC(CN2CCN(c3ccc(C(=O)NS(=O)(=O)c4ccc(NCC5CCOCC5)c([N+](=O)[O-])c4)c(Oc4cnc5[nH]ccc5c4)c3)CC2)=C(c2ccc(Cl)cc2)C1`, the viability, T/C is, setting by setting: (compound 0.0316 µM) 86% and 96.1%; (compound 0.1 µM) 83.1% and 79.8%; (compound 0.316 µM) 74.2% and 75.6%; (compound 1 µM) 80.1% and 87.6%; (compound 3.16 µM) 97% and 94.6%; (compound 10 µM) 78% and 68.1%. Besides, the IC50 (curve of compound) was more than 10000 nM.

Consider `Cc1nc(NC(=O)N2CCCC2C(N)=O)sc1-c1ccnc(C(C)(C)C(F)(F)F)c1` (stereo not drawn) + CC(C)NCC(C(=O)N1CCN(c2ncnc3c2C(C)CC3O)CC1)c1ccc(Cl)cc1, for which the concentration for half-maximal inhibition (IC50) is, setting by setting: under setting [1], 1490 nM; under setting [2], 961 nM; under setting [3], 704 nM; under setting [22], less than 31.6 nM; under setting [23], less than 31.6 nM. The viability, T/C by setting is: under setting [4], 93.4%; under setting [5], 77.3%; under setting [6], 67.5%; under setting [7], 52.8%; under setting [8], 47.6%; under setting [9], 22.7%. In addition, the viability, T/C under setting [10] was 81.3%; the viability, T/C under setting [11] is 71.7%; the viability, T/C under setting [12] is 63.1%; the viability, T/C under setting [13] is 42.7%; the viability, T/C under setting [14] was 45.7%; the viability, T/C under setting [15] is 16.4%. Besides, the viability, T/C was 67.2% under setting [16]; 60.4% under setting [17]; 59.5% under setting [18]; 43.5% under setting [19]; 36.4% under setting [20]; 14.2% under setting [21]. Moreover, the viability, T/C under setting [24] was 49.9%; the viability, T/C under setting [25] is 43.9%; the viability, T/C under setting [26] was 44.9%; the viability, T/C under setting [27] was 35.7%; the viability, T/C under setting [28] is 27.1%; the viability, T/C under setting [29] is 5.2%. In addition, the viability, T/C by setting is: under setting [30], 40.5%; under setting [31], 40%; under setting [32], 32.9%; under setting [33], 25.7%; under setting [34], 15.2%; under setting [35], 1.06%.

For `Cn1ncnc1[C@H]1c2n[nH]c(=O)c3cc(F)cc(c23)N[C@@H]1c1ccc(F)cc1`, the viability, T/C (compound 0.000316 µM) is 104% and 97.7%; the viability, T/C (compound 0.001 µM) is 91%; the viability, T/C (compound 0.00316 µM) was 92.1% and 91.5%; the viability, T/C (compound 0.01 µM) was 86.4% and 86.3%; the viability, T/C (compound 0.0316 µM) was 83% and 86.4%; the viability, T/C (compound 0.1 µM) was 89.5% and 79.1%. For the setting “curve of compound”, the IC50 was more than 100 nM.

Turning to `CC1(C)CCC(CN2CCN(c3ccc(C(=O)NS(=O)(=O)c4ccc(NCC5CCOCC5)c([N+](=O)[O-])c4)c(Oc4cnc5[nH]ccc5c4)c3)CC2)=C(c2ccc(Cl)cc2)C1` + CC(C)NCC(C(=O)N1CCN(c2ncnc3c2C(C)CC3O)CC1)c1ccc(Cl)cc1, the IC50 was more than 10000 nM under setting [1]; more than 10000 nM under setting [2]; more than 10000 nM under setting [3]; less than 31.6 nM under setting [22]; less than 31.6 nM under setting [23]. Further, the viability, T/C is 83.6% under setting [4]; 73.6% under setting [5]; 78.5% under setting [6]; 75.1% under setting [7]; 74.5% under setting [8]; 76.6% under setting [9]. The viability, T/C is, setting by setting: under setting [10], 73%; under setting [11], 69.8%; under setting [12], 67%; under setting [13], 71.4%; under setting [14], 63.3%; under setting [15], 71.2%. Also, the viability, T/C under setting [16] is 65.2%; the viability, T/C under setting [17] is 63.5%; the viability, T/C under setting [18] is 63.8%; the viability, T/C under setting [19] is 60.9%; the viability, T/C under setting [20] is 60.2%; the viability, T/C under setting [21] is 63.8%. Also, the viability, T/C by setting is: under setting [24], 51.2%; under setting [25], 50.7%; under setting [26], 46.9%; under setting [27], 50.3%; under setting [28], 49.6%; under setting [29], 32.3%. Further, the viability, T/C is, setting by setting: under setting [30], 43.7%; under setting [31], 41.7%; under setting [32], 41.3%; under setting [33], 38.3%; under setting [34], 47.1%; under setting [35], 11%.
